{"source": "PubChem BioAssay AID743396", "about": "(Broad Institute, 2014)", "note": "Active and inactive are the calls of the source.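 Rule for the calls: active = fitted curve reaches a 40% rise in fluorescent cells at or below the top valid dose; inactive = opposite-direction effect, or the rest.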"}
{"test_system": "mTEFS fibroblasts autofluorescence, GFP-channel imaging, 3 days", "experiment": "compound fluorescence in GFP channel, mTEFS cells – imaging, mTEFS fibroblasts, cherry-pick, artefact control for X-chromosome reactivation project, dose response (AID 743396)", "conditions": "cells pretreated with 5-aza-dC"}
{"compound": "Cc1n[nH]c(=S)n1/N=C/c1ccc(-c2ccc(Cl)cc2)o1", "AC40": "> 19.5 µM (inactive)"}
{"compound": "COc1ccc(-[n+]2c(C)cc(/C=C3\\Sc4ccccc4N3C)cc2C)cc1", "AC40": "1.58 µM"}
{"compound": "Cn1cc(C2=C(c3ccc(Cl)cc3Cl)C(=O)NC2=O)c2ccccc21", "AC40": "12.7 µM"}
{"compound": "Cc1oc2ccc(NS(=O)(=O)c3cccc4cccnc34)cc2c1C(=O)OC(C)C", "AC40": "4.77 µM"}
{"compound": "Cc1ccc(C(=O)N/C(=C/c2ccc(-c3ccc([N+](=O)[O-])cc3)o2)C(=O)NCCCN(C)C)cc1", "AC40": "5.7 µM"}
{"compound": "Cn1c(=O)[nH]c(=O)c2c1nc(SCCN1CCOCC1)n2CCCc1ccccc1", "AC40": "10.9 µM"}
{"compound": "C[C@H]1CN([C@@H](C)CO)S(=O)(=O)c2ccc(Br)cc2O[C@H]1CN(C)C(=O)c1cccnc1", "AC40": "> 6.8 µM (inactive)"}
{"compound": "CCN1CCc2c(sc(NC(=O)Nc3ccc(Cl)c(Cl)c3)c2C(N)=O)C1", "AC40": "0.558 µM"}
{"compound": "COc1cc2c3nnc(-c4ccccc4)c-3cn(Cc3ccccc3F)c2cc1OC", "AC40": "4.02 µM"}
{"compound": "COc1cccc(C(=O)c2c(-c3ccccc3)ncc3cc(OC)c(OC)cc23)c1", "AC40": "19.4 µM"}
{"compound": "Cc1cccc2cc3c(N)c(C(=O)N4CCc5ccccc54)sc3nc12", "AC40": "10.5 µM"}
{"compound": "O=[N+]([O-])c1ccc(N/N=C/c2ccc[nH]2)cc1", "AC40": "> 19.5 µM (inactive)"}
{"compound": "N#C/C(=C\\c1ccc(N2CCCCC2)o1)C(=O)Nc1cccc(Br)c1", "AC40": "0.919 µM"}
{"compound": "Cc1n[nH]c(=S)n(/N=C/c2cccc([N+](=O)[O-])c2)c1=O", "AC40": "> 19.5 µM (inactive)"}
{"compound": "COc1cc2c3nnc(-c4ccc(F)cc4)c-3cn(Cc3ccccc3F)c2cc1OC", "AC40": "2.46 µM"}
{"compound": "Nc1ccc2c3c(cccc13)-c1ccccc1-2", "AC40": "1.49 µM"}
{"compound": "O=[N+]([O-])c1ccc(N/N=C/c2sc(N3CCOCC3)nc2-c2ccccc2)c(S(=O)(=O)Nc2ccc(Cl)cc2)c1", "AC40": "> 6.8 µM (inactive)"}
{"compound": "CCN(CC)c1ccc2cc(-c3nc(-c4ccc(OC)cc4)cs3)c(=O)oc2c1", "AC40": "0.0781 µM"}
{"compound": "N#Cc1c(-c2ccccc2F)cc(C2CC2)nc1SCC(=O)c1cccs1", "AC40": "9.82 µM"}
{"compound": "N#C/C(=C/c1ccc(N2CCCCC2)o1)C(=O)Nc1ccc2ccccc2c1", "AC40": "1.53 µM"}
{"compound": "CCN1/C(=C/c2ccc3cc(C)ccc3[n+]2CC)Sc2ccccc21", "AC40": "0.395 µM"}
{"compound": "CCN(CC)C1=CC2=CC(=C(C#N)C#N)CCC2CC1", "note": "(stereo unspecified)", "AC40": "> 19.5 µM (inactive)"}
{"compound": "CC(C)CCN1C(=O)c2cccc3c(N)ccc(c23)C1=O", "AC40": "5.86 µM"}
{"compound": "CCc1cccc2cc3c(N)c(C(=O)Nc4ccc(S(=O)(=O)N5CCCC5)cc4)sc3nc12", "AC40": "7.09 µM"}
{"compound": "N#C/C(=C\\c1ccc([N+](=O)[O-])o1)c1nc2ccccc2[nH]1", "AC40": "> 19.5 µM (inactive)"}
{"compound": "Cc1cccc(NC(=O)/C=C/c2ccc([N+](=O)[O-])s2)c1", "AC40": "3.68 µM"}
{"compound": "N#C/C(=C/c1ccc(-c2ccccc2)o1)c1nc(-c2cccs2)cs1", "AC40": "7.35 µM"}
{"compound": "CN(C)S(=O)(=O)c1ccc2c(c1)/C(=C/c1cc3c([nH]1)CCCC3)C(=O)N2", "AC40": "3.17 µM"}
{"compound": "Cc1cc2oc3ccc(NCCCn4ccnc4)cc3c(=O)c2cc1C", "AC40": "19.2 µM"}
{"compound": "CC(=O)Nc1sc(/C(C#N)=C/c2ccc(Cl)c(Cl)c2)nc1-c1ccc(C)cc1", "AC40": "3.55 µM"}
{"compound": "CC1CN(C(=O)/C=C/c2ccc([N+](=O)[O-])s2)CC(C)O1", "note": "(stereo unspecified)", "AC40": "10.6 µM"}
{"compound": "CCOC(=O)/C=c1\\s/c(=C\\c2ccc3cc(OC)ccc3c2)c(=O)n1CC(=O)NCc1ccc2c(c1)OCO2", "AC40": "4.43 µM"}
{"compound": "O=C(N/N=C\\c1c(O)ccc2ccccc12)c1ccc(S(=O)(=O)N2CCCCC2)cc1", "AC40": "19.2 µM"}
{"compound": "COc1ccccc1N1N=C(c2ccc([N+](=O)[O-])cc2)CC1c1ccccc1", "note": "(stereo unspecified)", "AC40": "5.77 µM"}
{"compound": "O=C(NC1CCCC1)c1cccc2c1C(=O)c1ccc(/C=C/c3ccccc3)cc1S2(=O)=O", "AC40": "> 19.5 µM (inactive)"}
{"compound": "CCN1CCc2c(sc(NC(=O)c3ccc4ccccc4c3)c2C(N)=O)C1", "AC40": "3.45 µM"}
{"compound": "CCN1/C(=C/c2ccc3cc(C)ccc3[n+]2CC)Sc2cc(C)ccc21", "AC40": "6.21 µM"}
{"compound": "COC1C(CO)OC(n2c3c(Cl)cccc3c3c4c(c5c6cccc(Cl)c6[nH]c5c32)C(=O)NC4=O)C(O)C1O", "note": "(stereo unspecified)", "AC40": "> 19.5 µM (inactive)"}
{"compound": "O=c1oc2cc(O)ccc2cc1-c1nc2c(s1)CCc1ccccc1-2", "AC40": "4.39 µM"}
{"compound": "N#Cc1ccccc1Cn1cc(/C=N/Nc2ccc([N+](=O)[O-])cn2)c2ccccc21", "AC40": "16.1 µM"}
{"compound": "CCCN1C(=O)S/C(=C\\c2ccc(N3CCOCC3)o2)C1=O", "AC40": "> 19.5 µM (inactive)"}
{"compound": "CN(C)c1ccc(/C=C(/C#N)C(=O)NCc2ccccc2)o1", "AC40": "14.7 µM"}
{"compound": "Cc1cccc(-c2cccc3[nH]c4c(c23)CCN2C(=O)[C@H]3[C@H](C)ON(C)[C@H]3C[C@@H]42)c1", "AC40": "14.7 µM"}
{"compound": "C[C@@H]1CCCCO[C@H](CN(C)C(=O)Nc2ccc(C(F)(F)F)cc2)[C@H](C)CN([C@H](C)CO)C(=O)c2cc(NC(=O)CCC(F)(F)F)ccc2O1", "AC40": "17.4 µM"}
{"compound": "Nc1c(C(=O)c2ccccc2)sc2nsc(SCCN3CCCC3)c12", "AC40": "10.5 µM"}
{"compound": "O=[N+]([O-])c1ccc(/C=C/C2=NN(c3ccccc3)C(c3ccco3)C2)cc1", "note": "(stereo unspecified)", "AC40": "3.37 µM"}
{"compound": "Cc1ccc(NC(=O)/C=C/c2ccc([N+](=O)[O-])s2)cc1", "AC40": "4.44 µM"}
{"compound": "Oc1ccc(/C=N/Nc2ccnc3cc(Cl)ccc23)c(O)c1", "AC40": "> 19.5 µM (inactive)"}
{"compound": "O=[N+]([O-])c1ccc(C2=NN(c3ccccc3)C(c3ccco3)C2)cc1", "note": "(stereo unspecified)", "AC40": "2.59 µM"}
{"compound": "Cc1c2c(cc3c1[nH]c1ccccc13)C=NCC2", "AC40": "15.8 µM"}
{"compound": "CN(C)CCCN1C(=O)c2cccc3c([N+](=O)[O-])ccc(c23)C1=O", "AC40": "> 19.5 µM (inactive)"}
